Test systems include LOX IMVI melanoma; SF-268 CNS; NCI-H460 lung; HT29 colon; HCT-116 colon; SK-MEL-2 melanoma; RPMI-8226 leukemia; MALME-3M melanoma; CCRF-CEM leukemia; 786-0 renal.
Assay in all cases: NCI-60 cell line screen, 48 h

The values that follow come from PubChem BioAssay (NCI).

Several values for one entry are separate records, joined by “and”; a condition that tells them apart may be missing. Equal entries are not always repeated.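 Dose response: 5 concentrations. Exposure: 48 h. Format: 96-well plates. Endpoint: linear interpolation; highest concentration if not reached. GI50 is the concentration that inhibits growth by half. TGI marks complete inhibition of growth.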

Turning to `COc1cc(Nc2cn[nH]c2-c2ccc(Cl)cc2)cc(OC)c1OC`, the GI50 in the experiment with LOX IMVI melanoma was 5.62 µM; in the experiment with SF-268 CNS, 6.76 µM; in the experiment with NCI-H460 lung, 3.7 µM; with HT29 colon it was 3.24 µM; with HCT-116 colon, 3.73 µM; with SK-MEL-2 melanoma, 6.82 µM. In addition, the GI50 with RPMI-8226 leukemia is 2.48 µM; with MALME-3M melanoma, 4.51 µM; with CCRF-CEM leukemia, 3.42 µM; in the experiment on 786-0 renal, 6.8 µM. For the same molecule, the TGI with LOX IMVI melanoma was 20.7 µM; in the experiment with SF-268 CNS, > 70.5 µM; in the experiment with NCI-H460 lung, 19.1 µM; in the experiment on HT29 colon, 14.3 µM; in the experiment on HCT-116 colon, 13.7 µM; with SK-MEL-2 melanoma, 41.5 µM. Further, the TGI in the experiment on RPMI-8226 leukemia was 12.3 µM; with MALME-3M melanoma, 45.8 µM; with CCRF-CEM leukemia, > 81.9 µM; in the experiment with 786-0 renal it was 36.2 µM.
Consider `O=C1CCCC/C(=C/c2ccccc2)N1`, for which the TGI in the experiment on LOX IMVI melanoma, in the experiment on SF-268 CNS, with NCI-H460 lung, in the experiment on HT29 colon, in the experiment with HCT-116 colon and in the experiment on SK-MEL-2 melanoma was > 100 µM in each case. Besides, the TGI in the experiment on RPMI-8226 leukemia, in the experiment with MALME-3M melanoma, in the experiment with CCRF-CEM leukemia and in the experiment on 786-0 renal was > 100 µM in each case.
For `Cn1cc(C2=C(c3ccc4ccccc4c3)C(=O)NC2=O)c2ccccc21`, the GI50 was > 25 µM with LOX IMVI melanoma; > 25 µM in the experiment with SF-268 CNS; > 25 µM with NCI-H460 lung; 9.87 µM in the experiment with HT29 colon; 15.6 µM with HCT-116 colon; > 25 µM in the experiment on SK-MEL-2 melanoma. In addition, the GI50 was > 23.8 µM in the experiment with RPMI-8226 leukemia, > 22.1 µM in the experiment with MALME-3M melanoma, > 25 µM in the experiment on CCRF-CEM leukemia and > 25 µM in the experiment on 786-0 renal. Besides, the TGI in the experiment with LOX IMVI melanoma, in the experiment with SF-268 CNS, in the experiment with NCI-H460 lung, with HT29 colon, with HCT-116 colon and with SK-MEL-2 melanoma was > 25 µM each time. In addition, the TGI in the experiment on RPMI-8226 leukemia, in the experiment with MALME-3M melanoma, in the experiment with CCRF-CEM leukemia and with 786-0 renal was > 25 µM each time.
Take `O=C(Nc1nc2ncn(CCI)c2c(=O)[nH]1)c1ccccc1`: the TGI with LOX IMVI melanoma is > 100 µM; in the experiment with SF-268 CNS, 50.3 µM; with NCI-H460 lung it was > 100 µM; in the experiment on HT29 colon, > 100 µM; in the experiment on HCT-116 colon, > 100 µM; in the experiment with SK-MEL-2 melanoma, > 92.3 µM. The TGI in the experiment with RPMI-8226 leukemia, with MALME-3M melanoma, with CCRF-CEM leukemia and in the experiment with 786-0 renal was > 100 µM in each case.
Regarding `C#Cc1cccc(Nc2ncnc3cc(OC)c(OCCCCCCC(=O)NO)cc23)c1`, the GI50 was 0.195 µM in the experiment on LOX IMVI melanoma; 0.379 µM in the experiment on SF-268 CNS; 0.444 µM with NCI-H460 lung; 0.253 µM with HT29 colon; 0.0791 µM in the experiment on HCT-116 colon; 0.309 µM in the experiment on SK-MEL-2 melanoma. Besides, the GI50 is 0.302 µM with RPMI-8226 leukemia, 0.037 µM in the experiment on MALME-3M melanoma, 0.0404 µM in the experiment with CCRF-CEM leukemia and 0.448 µM in the experiment on 786-0 renal. The TGI in the experiment with LOX IMVI melanoma turned out to be 1.81 µM; in the experiment on SF-268 CNS, 2.65 µM; in the experiment on NCI-H460 lung, 4.31 µM; in the experiment on HT29 colon, 5.33 µM; in the experiment with HCT-116 colon it was 3.33 µM; in the experiment with SK-MEL-2 melanoma, 1.85 µM. Besides, the TGI in the experiment on RPMI-8226 leukemia amounted to 1.78 µM; in the experiment on MALME-3M melanoma, 0.763 µM; in the experiment on CCRF-CEM leukemia, 5.85 µM; in the experiment with 786-0 renal, 4.68 µM.
Regarding `O=C1NC(=Nc2ccccc2)S/C1=C\c1ccc2ncccc2c1`, the GI50 was > 25 µM with LOX IMVI melanoma; > 10.3 µM in the experiment with SF-268 CNS; > 6.82 µM with NCI-H460 lung; > 25 µM in the experiment on HT29 colon; 1.14 µM with HCT-116 colon; > 17.9 µM in the experiment on SK-MEL-2 melanoma. For the same molecule, the GI50 was > 18.1 µM in the experiment on MALME-3M melanoma, > 25 µM with CCRF-CEM leukemia and > 25 µM in the experiment with 786-0 renal. Besides, the TGI in the experiment with LOX IMVI melanoma, in the experiment on SF-268 CNS, with NCI-H460 lung, in the experiment on HT29 colon, in the experiment on HCT-116 colon and in the experiment on SK-MEL-2 melanoma was > 25 µM throughout. Further, the TGI in the experiment with RPMI-8226 leukemia, in the experiment on MALME-3M melanoma, with CCRF-CEM leukemia and in the experiment on 786-0 renal was > 25 µM each time.
As for `Cc1ccc(SC(C)/C=C/NNC2=NC(c3ccccc3)C(c3ccccc3)=NN2)cc1` (centres undefined), the TGI in the experiment with LOX IMVI melanoma was > 100 µM; with SF-268 CNS, > 100 µM; in the experiment with NCI-H460 lung, > 100 µM; in the experiment on HT29 colon, 27.3 µM; with HCT-116 colon it was > 100 µM; with SK-MEL-2 melanoma it was > 100 µM. Also, the TGI in the experiment with RPMI-8226 leukemia, in the experiment on MALME-3M melanoma, with CCRF-CEM leukemia and in the experiment with 786-0 renal was > 100 µM throughout.
As for `O=S(=O)(Nc1cc(F)cc(Cl)c1)c1ccc(-c2cnc(C3CC3)o2)cc1`, the GI50 in the experiment on LOX IMVI melanoma was 2.5 µM; with SF-268 CNS it was 6.47 µM; in the experiment with NCI-H460 lung, 0.64 µM; in the experiment with HT29 colon, 0.515 µM; in the experiment with HCT-116 colon it was 0.719 µM; with SK-MEL-2 melanoma, 4.66 µM. The GI50 in the experiment on RPMI-8226 leukemia was 2.74 µM; in the experiment with MALME-3M melanoma, 2.53 µM; in the experiment with CCRF-CEM leukemia, 1.71 µM; with 786-0 renal, 4.88 µM. For the same molecule, the TGI was 20.8 µM in the experiment with LOX IMVI melanoma; 26.2 µM in the experiment on SF-268 CNS; 13.8 µM with NCI-H460 lung; 10.6 µM in the experiment with HT29 colon; 16.4 µM in the experiment on HCT-116 colon; 26.9 µM with SK-MEL-2 melanoma. Besides, the TGI in the experiment on RPMI-8226 leukemia was 40.6 µM; with MALME-3M melanoma it was 28 µM; with CCRF-CEM leukemia it was > 100 µM; in the experiment on 786-0 renal it was 20.9 µM.
Turning to `COCCOc1cc(F)c2c(Nc3ccc(NC(=O)Cn4cc(C(C)C)nn4)cc3)ncnc2c1`, the GI50 with LOX IMVI melanoma was > 100 µM; with SF-268 CNS, 37.5 µM; with NCI-H460 lung it was 51.3 µM; with HT29 colon, > 100 µM; in the experiment on HCT-116 colon, 57.9 µM; in the experiment on SK-MEL-2 melanoma, 44.7 µM. For the same molecule, the GI50 in the experiment on RPMI-8226 leukemia was > 100 µM; in the experiment on MALME-3M melanoma, 79.6 µM; in the experiment with CCRF-CEM leukemia, > 100 µM; in the experiment with 786-0 renal it was 39.1 µM. Besides, the TGI with LOX IMVI melanoma, in the experiment on SF-268 CNS, in the experiment on NCI-H460 lung, in the experiment on HT29 colon, in the experiment with HCT-116 colon and with SK-MEL-2 melanoma was > 100 µM throughout. The TGI with RPMI-8226 leukemia, in the experiment on MALME-3M melanoma, in the experiment with CCRF-CEM leukemia and in the experiment on 786-0 renal was > 100 µM each time.
For `O=C(OCc1ccc2cccc(O)c2n1)N1CCN(C(=O)c2cc3cc(F)ccc3[nH]2)CC1`, the GI50 with LOX IMVI melanoma was 1.36 µM; in the experiment with SF-268 CNS, 1.45 µM; in the experiment with NCI-H460 lung it was 1.34 µM; in the experiment with HT29 colon it was 1.14 µM; with HCT-116 colon, 0.357 µM; in the experiment with SK-MEL-2 melanoma, 1.35 µM. The GI50 in the experiment with RPMI-8226 leukemia was 0.251 µM; in the experiment on MALME-3M melanoma, 1.46 µM; with CCRF-CEM leukemia it was 0.242 µM; in the experiment on 786-0 renal, 1.42 µM. Besides, the TGI in the experiment with LOX IMVI melanoma is 2.75 µM; in the experiment on SF-268 CNS it was 3.04 µM; with NCI-H460 lung it was 3.64 µM; with HT29 colon, 3.05 µM; in the experiment with HCT-116 colon it was 1.32 µM; in the experiment with SK-MEL-2 melanoma it was 2.78 µM. Also, the TGI with RPMI-8226 leukemia is 0.787 µM; in the experiment with MALME-3M melanoma it was 2.78 µM; in the experiment on CCRF-CEM leukemia, 0.995 µM; with 786-0 renal, 2.82 µM.
Take `Oc1[nH]c2ccccc2c1N=Nc1ccccc1Cl`: the TGI in the experiment with LOX IMVI melanoma, with SF-268 CNS, in the experiment with NCI-H460 lung, in the experiment with HT29 colon, with HCT-116 colon and with SK-MEL-2 melanoma was > 100 µM in each case. For the same molecule, the TGI in the experiment on RPMI-8226 leukemia was > 100 µM; in the experiment with MALME-3M melanoma, > 100 µM; in the experiment with CCRF-CEM leukemia it was > 100 µM; in the experiment with 786-0 renal, 31.1 µM.
`O=c1n(CC2CO2)c(=O)n(CC2CO2)c(=O)n1CC1CO1` (centres undefined): the GI50 with LOX IMVI melanoma is 12.3 µM and 6.12 µM; in the experiment on SF-268 CNS it was 11.7 µM and 3.66 µM; with NCI-H460 lung, 6.61 µM and 0.743 µM; in the experiment with HT29 colon, 24.4 µM; in the experiment on HCT-116 colon, 12.3 µM and 10.2 µM; with SK-MEL-2 melanoma it was 36.9 µM and 33 µM. The GI50 with RPMI-8226 leukemia was 28.4 µM and 17.6 µM; in the experiment with MALME-3M melanoma, 17.1 µM and 43.2 µM; with CCRF-CEM leukemia, 6.05 µM and 2.92 µM; in the experiment on 786-0 renal, 8.38 µM and 4.15 µM. The TGI in the experiment with LOX IMVI melanoma is 47.5 µM and 102 µM and > 100 µM; in the experiment on SF-268 CNS it was 241 µM and > 100 µM; in the experiment with NCI-H460 lung, 32 µM and 29.6 µM and 12.2 µM; in the experiment with HT29 colon it was 62.3 µM and > 100 µM; with HCT-116 colon, 43.9 µM and 88.6 µM and > 100 µM; with SK-MEL-2 melanoma, 215 µM and > 100 µM. Besides, the TGI with RPMI-8226 leukemia was 399 µM and > 100 µM; in the experiment on MALME-3M melanoma it was 44.3 µM and 70.2 µM and > 100 µM; in the experiment on CCRF-CEM leukemia, 223 µM and > 100 µM; with 786-0 renal it was 24.2 µM and 84.8 µM and > 100 µM.
Regarding `COC(=O)C1=C(C)N(NC(=O)c2ccccc2)C(C)(O)C12CCOC2=O` (centres undefined), the TGI was > 100 µM with LOX IMVI melanoma; > 100 µM in the experiment with SF-268 CNS; > 100 µM in the experiment with NCI-H460 lung; > 100 µM with HT29 colon; > 100 µM with HCT-116 colon; 2.41 µM with SK-MEL-2 melanoma. Further, the TGI with RPMI-8226 leukemia was > 100 µM; in the experiment on MALME-3M melanoma, 1.86 µM; with CCRF-CEM leukemia, > 100 µM; in the experiment with 786-0 renal it was 2.68 µM.
